Test results published in patent US12673022B2, “Drug delivery system using solution” (Kyoto University, priority 2018, dated 2026).

How the values were obtained:
[1] = test system: EGFP reporter cells (C2C12 cells); experiment: EGFP-SSA assay: uptake of Cas9 protein/gRNA complex into cells (EGFP positive rate); format: cell-based, mouse; conditions: for Compound activity: EGFP positive rate (%): Example 1, compound 250.0 mM, reaction solution 1 (550 mM sodium chloride, 1 mM HEPES, Cas9 protein/gRNA), 30 minutes; for EGFP positive rate (activity) with different (B) salts: Example 3, reaction solutions 3-1 to 3-6: 250 mM GABA, 50 mM HEPES, salt varied, FIG. 7
Description: EGFP-SSA assay: an abbreviation of EGFP-single strand annealing assay. The reporter cassette shown in FIG. 1 is inserted in EGFP reporter cells. In the middle of the EGFP sequence of the cassette, MmDMD-Ex51 sequence is inserted. Since the presence of MmDMD-Ex51 sequence, by which EGFP ORF is divided, EGFP protein is not usually translated. However, when target sequence of MmDMD-Ex51 is cleaved by Cas9 protein/gRNA complex, the upstream region (EG part) and the downstream region (FP part) of EGFP ORF are annealed via a homology area into a single strand, with the result that a full-length EGFP ORF emerges to produce EGFP protein. Based on this principle, the ratio of the number of cells producing EGFP is checked by the EGFP-SSA assay. In this manner, the amount of Cas9 protein/gRNA complex delivered to cells can be predicted.
(§1) Cas9 protein (0.4 μg), tracrRNA (34.18 ng), MmDmd Ex51 crRNA (29.48 ng), a 1 M HEPES buffer (0.05 μL) and a 5 M aqueous sodium chloride solution (5.5 μL) were mixed and diluted with UltraPure DNase/RNase-Free Distilled Water up to a liquid volume of 37.5 μL so as to obtain final concentrations: 8 ng/μL Cas9 protein, 0.68 ng/μL tracrRNA, 0.59 ng/μL MmDmd Ex51 crRNA, 1 mM HEPES, 550 mM sodium chloride, and 250 mM compound. To this solution, a 1000 mM compound solution (12.5 μL) was added and the solution mixture was incubated at normal temperature for 15 minutes.
as §1, with “buffer (2.5” for “buffer (0.05”, “solution (4.85” for “solution (5.5”, “crRNA, 50” for “crRNA, 1”, “HEPES, 485” for “HEPES, 550”, “minutes. Note that, in the cases where the final concentrations of the compound are 0.69 mM, 25 mM, 100 mM, 125 mM, 160 mM, 200 mM and 500 mM, the compound stock solution was diluted with UltraPure DNase/RNase-Free Distilled Water up to concentrations of 2.76 mM, 100 mM, 400 mM, 500 mM, 640 mM, 800 mM and 2000 mM, respectively, and then, added. […]” for “minutes.”
Cas9 protein (2.0 μg), tracrRNA (170.9 ng), MmDmd Ex51 crRNA (147.4 ng), a 1 M HEPES buffer (12.5 μL), a 5 M aqueous sodium chloride solution (18.35 μL) and a 1 M aqueous GABA solution (62.5 μL) were mixed, diluted with UltraPure DNase/RNase-Free Distilled Water up to a liquid volume of 250 μL so as to obtain final concentrations: 8 ng/μL Cas9 protein, 0.68 ng/μL tracrRNA, 0.59 ng/μL MmDmd Ex51 crRNA, 50 mM HEPES, 250 mM GABA and 367 mM sodium chloride, and incubated at normal temperature for 15 minutes. Note that the addition amount of the 5 M aqueous sodium chloride solution was changed to 24.25 μL in the case of 485 mM sodium chloride and the addition amount was changed to 27.5 μL in the case of 550 mM sodium chloride, respectively.

[2] = test system: EGFP reporter cells (C2C12 cells); experiment: Number of HOECHST cells detected (cell viability) in the EGFP-SSA assay; conditions: Example 1, formula (2)
Description: To each of the solutions, a complex of gRNA and Cas9 protein was further dissolved. Mouse myoblasts (C2C12 cells) were contacted with each of the solutions in vitro, and target gene cleavage activity and cell viability were evaluated.

[3] = test system: EGFP reporter cells (C2C12 cells); experiment: EGFP-SSA assay: uptake of Cas9 protein/gRNA complex into cells (EGFP positive rate); format: cell-based, mouse; conditions: for Compound activity: EGFP positive rate (%): reaction solution 1 (550 mM sodium chloride, 1 mM HEPES, Cas9 protein/gRNA), 30 minutes; for EGFP positive rate: Example 4, compound 250 mM, FIG. 8
[4] = compound 250.0 mM vs 250 mM GABA positive control on the same plate
[5] = compound 125.0 mM vs 250 mM GABA positive control on the same plate
[6] = compound 200.0 mM vs 250 mM GABA positive control on the same plate
[7] = compound 500.0 mM vs 250 mM GABA positive control on the same plate

O=C(O)CCC(O)C(=O)O (stereo not shown) [2-Hydroxyglutaric acid]
Compound activity: EGFP positive rate (%) [1]: 1.89%
Relative ratio to GABA: Number of HOECHST cells [2, 4]: 0.83

CC(O)CCO (stereo not shown) [1,3-Butylene glycol]
Compound activity: EGFP positive rate (%) ([3]; Example 1, compound 0.69 mM): 3.62%
Relative ratio to GABA: Number of HOECHST cells ([2]; compound 0.69 mM vs 250 mM GABA positive control on the same plate): 1.03

Nc1ccn([C@@H]2O[C@H](CO)[C@@H](O)[C@H]2O)c(=O)n1 [Cytidine]
Compound activity: EGFP positive rate (%) ([3]; Example 1, compound 125.0 mM): 2.24%
Relative ratio to GABA: Number of HOECHST cells [2, 5]: 1.58

NCCCC(=O)O [GABA, γ-aminobutyric acid, reference compound]
Compound activity: EGFP positive rate (%) ([3]; Example 1, compound 200.0 mM): 1.39%
EGFP positive rate ([3]; sodium chloride 150 mM): less than 1%
EGFP positive rate ([3]; sodium chloride 350 mM): less than 1%
EGFP positive rate ([1]; Example 4, sodium chloride 550 mM, compound 250 mM, FIG. 8): 1.4%
Relative ratio to GABA: Number of HOECHST cells [2, 6]: 1.00

NCCC(=O)N[C@@H](Cc1cnc[nH]1)C(=O)O [L-Carnosine]
Compound activity: EGFP positive rate (%) ([3]; Example 1, compound 125.0 mM): 1.76%
Relative ratio to GABA: Number of HOECHST cells [2, 5]: 0.98

CC(C)(CO)[C@@H](O)C(=O)NCCC(=O)O [Calcium pantothenate]
Compound activity: EGFP positive rate (%) ([3]; Example 1, compound 160.0 mM): 0.25%
Relative ratio to GABA: Number of HOECHST cells ([2]; compound 160.0 mM vs 250 mM GABA positive control on the same plate): 1.50

OCCN1C[C@H](O)[C@@H](O)[C@H](O)[C@H]1CO [Miglitol]
Compound activity: EGFP positive rate (%) ([3]; Example 1, compound 125.0 mM): 1.55%
Relative ratio to GABA: Number of HOECHST cells [2, 5]: 0.83

O=C(O)[C@H](O)[C@@H](O)[C@H](O)[C@H](O)COP(=O)(O)O [6-Phospho-D-gluconic acid]
Compound activity: EGFP positive rate (%) [1]: 2.61%
Relative ratio to GABA: Number of HOECHST cells [2, 4]: 1.31

O=C(O)[C@@H]1CC(O)CN1 (stereo partly shown) [4-Hydroxyproline]
Compound activity: EGFP positive rate (%) ([3]; Example 1, compound 500.0 mM): 35.82%
Relative ratio to GABA: Number of HOECHST cells [2, 7]: 0.62

CN1CC(=O)NC1=N [Creatinine]
Relative ratio to GABA: EGFP positive rate (%) ([3]; Example 1, compound 200.0 mM vs 250 mM GABA positive control on the same plate, formula (1)): 2.50
Compound activity: EGFP positive rate (%) ([3]; Example 1, compound 200.0 mM): 2.27%
Relative ratio to GABA: Number of HOECHST cells [2, 6]: 0.84

[Cl-].[Cl-].[Mg+2] [magnesium chloride]
EGFP positive rate (activity) with different (B) salts [1]: almost the same activity

O=c1ccn([C@H]2C[C@H](O)[C@@H](CO)O2)c(=O)[nH]1 [2′-Deoxyuridine]
Compound activity: EGFP positive rate (%) ([3]; Example 1, compound 100.0 mM): 1.10%
Relative ratio to GABA: Number of HOECHST cells ([2]; compound 100.0 mM vs 250 mM GABA positive control on the same plate): 0.88

CC(C)C(=O)C(=O)O [Sodium 3-methyl-2-oxobutate]
Compound activity: EGFP positive rate (%) ([3]; Example 1, compound 200.0 mM): 1.71%
Relative ratio to GABA: Number of HOECHST cells [2, 6]: 0.53

[Cl-].[Na+] [sodium chloride]
EGFP positive rate (activity) with different (B) salts [1]: almost the same activity

CNC(=O)NC [1,3-Dimethylurea]
Compound activity: EGFP positive rate (%) ([3]; Example 1, compound 500.0 mM): 2.64%
Relative ratio to GABA: Number of HOECHST cells [2, 7]: 0.68

OC[C@H]1O[C@@H](O[C@H]2[C@H](O)[C@@H](O)[C@H](O)O[C@@H]2CO)[C@H](O)[C@@H](O)[C@@H]1O [D(+)-cellobiose]
Compound activity: EGFP positive rate (%) ([3]; Example 1, compound 200.0 mM): 1.18%
Relative ratio to GABA: Number of HOECHST cells [2, 6]: 1.00

O=P(O)(O)O[C@H]1O[C@H](CO)[C@@H](O)[C@H](O)[C@H]1O [α-D-Glucose-1-phosphate]
Compound activity: EGFP positive rate (%) [1]: 2.52%
Relative ratio to GABA: Number of HOECHST cells [2, 4]: 1.29

Cn1cnc(C[C@H](N)C(=O)O)c1 [1-Methyl-L-histidine]
Compound activity: EGFP positive rate (%) [1]: 3.54%
Relative ratio to GABA: Number of HOECHST cells [2, 4]: 0.68

Nc1cc[nH]c(=O)n1 [Cytosine]
Compound activity: EGFP positive rate (%) ([3]; Example 1, compound 25.0 mM): 0.61%
Relative ratio to GABA: Number of HOECHST cells ([2]; compound 25.0 mM vs 250 mM GABA positive control on the same plate): 0.77
